Source: patent US20210101874A1, “MICROBIOCIDAL OXADIAZOLE DERIVATIVES” (SYNGENTA PARTICIPATIONS AG, priority 2017, published 2021)

Tests used:
[1] = system: Glomerella lagenarium (Colletotrichum lagenarium); experiment: Glomerella lagenarium (Colletotrichum lagenarium) liquid culture / cucumber / preventative (anthracnose); format: cell-based; settings: Colletotrichum orbiculare; 20 ppm in the applied formulation; conidia in PDB nutrient broth, 24° C.; 3 to 4 days after application; compared to untreated; read-out: disease control (inhibition of growth measured photometrically)
How it was run: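 Test compound, diluted from DMSO, was mixed in microtiter wells with fungal conidia taken from cryogenic storage and suspended in PDB nutrient broth. After 3 to 4 days at 24 °C, photometric growth measurement gave antifungal activity as a percentage of the untreated control.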

[2] = system: Puccinia recondita f. sp. Tritici; experiment: Puccinia recondita f. sp. tritici / wheat / leaf disc preventative (brown rust); format: in vivo; settings: foliar, 200 ppm in the applied formulation, wheat leaf segments cv. Kanzler, inoculated 1 day after application, compared to untreated, assessed 7 to 9 days after application, read-out: disease control
How it was run: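 Preventative leaf-segment test, cv. Kanzler on agar: spray compound, inoculate with spore suspension 1 d post-application, hold at 19° C./75% rh, 12 h/12 h light cycle. Read-out = % disease control vs untreated check at 7–9 d; 200 ppm in applied formulation.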

[3] = system: Puccinia recondita f. sp. Tritici; experiment: Puccinia recondita f. sp. tritici / wheat / leaf disc curative (brown rust); format: in vivo; settings: foliar, 200 ppm in the applied formulation, wheat leaf segments cv. Kanzler, applied 1 day after inoculation, compared to untreated, assessed 6 to 8 days after application, read-out: disease control
Description: Leaf disks or leaf segments of various plant species are cut from plants grown in a greenhouse. The cut leaf disks or segments are placed in multiwell plates (24-well format) onto water agar. The leaf disks are sprayed with a test solution before (preventative) or after (curative) inoculation. Compounds to be tested are prepared as DMSO solutions (max. 10 mg/ml) which are diluted to the appropriate concentration with 0.025% Tween20 just before spraying. The inoculated leaf disks or segments are incubated under defined conditions (temperature, relative humidity, light, etc.) according to the respective test system. A single evaluation of disease level is carried out 3 to 14 days after inoculation, depending on the pathosystem. Percent disease control relative to the untreated check leaf disks or segments is then calculated.
Wheat leaf segments cv. Kanzler are placed on agar in multiwell plates (24-well format). The leaf segments are then inoculated with a spore suspension of the fungus. Plates were stored in darkness at 19° C. and 75% relative humidity. The formulated test compound diluted in water was applied 1 day after inoculation. The leaf segments were incubated at 19° C. and 75% relative humidity under a light regime of 12 hours light/12 hours darkness in a climate cabinet and the activity of a compound was assessed as percent disease control compared to untreated when an appropriate level of disease damage appears in untreated check leaf segments (6 to 8 days after application).
The following compounds at 200 ppm in the applied formulation give at least 80% disease control in this test when compared to untreated control leaf disks under the same conditions, which show extensive disease development.

CNS(=O)(=O)N(C)Cc1ccc(-c2noc(C(F)(F)F)n2)cc1 [Compound 1.56, 3-[4-[[methyl (methylsulfamoyl)amino]methyl]phenyl]-5-(trifluoromethyl)-1,2,4-oxadiazole]
≥ 80%: inhibition at 20 ppm [1] | pest or weed control at 200 ppm [2] | pest or weed control at 200 ppm [3]

CCN(Cc1ccc(-c2noc(C(F)(F)F)n2)cc1)S(=O)(=O)CC(=O)OC [Compound 1.59, methyl 2-[ethyl-[[4-[5-(trifluoromethyl)-1,2,4-oxadiazol-3-yl]phenyl]methyl]sulfamoyl]acetate]
≥ 80%: inhibition at 20 ppm [1] | pest or weed control at 200 ppm [2] | pest or weed control at 200 ppm [3]

CCN(Cc1ccc(-c2noc(C(F)(F)F)n2)cc1)S(=O)(=O)CC [Compound 1.61, N-ethyl-N-[[4-[5-(trifluoromethyl)-1,2,4-oxadiazol-3-yl]phenyl]methyl] ethanesulfonamide]
≥ 80%: inhibition at 20 ppm [1] | pest or weed control at 200 ppm [2] | pest or weed control at 200 ppm [3]

CCN(Cc1ccc(-c2noc(C(F)(F)F)n2)cc1)S(C)(=O)=O [Compound 1.62, N-ethyl-N-[[4-[5-(trifluoromethyl)-1,2,4-oxadiazol-3-yl]phenyl]methyl] methanesulfonamide]
≥ 80%: inhibition at 20 ppm [1] | pest or weed control at 200 ppm [2] | pest or weed control at 200 ppm [3]

CCN(Cc1ccc(-c2noc(C(F)(F)F)n2)cc1)S(=O)(=O)NC [Compound 1.63, 3-[4-[[ethyl (methylsulfamoyl)amino]methyl]phenyl]-5-(trifluoromethyl)-1,2,4-oxadiazole]
≥ 80%: inhibition at 20 ppm [1] | pest or weed control at 200 ppm [2] | pest or weed control at 200 ppm [3]

CCN(Cc1ccc(-c2noc(C(F)(F)F)n2)cc1)S(=O)(=O)N(C)C [Compound 1.64, N-(dimethylsulfamoyl)-N-[[4-[5-(trifluoromethyl)-1,2,4-oxadiazol-3-yl]phenyl]methyl] ethanamine]
≥ 80%: inhibition at 20 ppm [1] | pest or weed control at 200 ppm [2] | pest or weed control at 200 ppm [3]

CCCN(Cc1ccc(-c2noc(C(F)(F)F)n2)cc1)S(=O)(=O)C1CC1 [Compound 1.69, N-propyl-N-[[4-[5-(trifluoromethyl)-1,2,4-oxadiazol-3-yl]phenyl]methyl] cyclopropanesulfonamide]
≥ 80%: inhibition at 20 ppm [1] | pest or weed control at 200 ppm [2] | pest or weed control at 200 ppm [3]

CCCN(Cc1ccc(-c2noc(C(F)(F)F)n2)cc1)S(=O)(=O)CCOC [Compound 1.73, 2-methoxy-N-propyl-N-[[4-[5-(trifluoromethyl)-1,2,4-oxadiazol-3-yl]phenyl]methyl] ethanesulfonamide]
≥ 80%: inhibition at 20 ppm [1] | pest or weed control at 200 ppm [2] | pest or weed control at 200 ppm [3]

CCCN(Cc1ccc(-c2noc(C(F)(F)F)n2)cc1)S(=O)(=O)CC(=O)OC [Compound 1.76, methyl 2-[propyl-[[4-[5-(trifluoromethyl)-1,2,4-oxadiazol-3-yl]phenyl]methyl]sulfamoyl]acetate]
≥ 80%: inhibition at 20 ppm [1] | pest or weed control at 200 ppm [2] | pest or weed control at 200 ppm [3]

CCCN(Cc1ccc(-c2noc(C(F)(F)F)n2)cc1)S(C)(=O)=O [Compound 1.79, N-propyl-N-[[4-[5-(trifluoromethyl)-1,2,4-oxadiazol-3-yl]phenyl]methyl] methanesulfonamide]
≥ 80%: inhibition at 20 ppm [1] | pest or weed control at 200 ppm [2] | pest or weed control at 200 ppm [3]

CC(C)N(Cc1ccc(-c2noc(C(F)(F)F)n2)cc1)S(=O)(=O)c1ccn(C)n1 [Compound 1.82, N-isopropyl-1-methyl-N-[[4-[5-(trifluoromethyl)-1,2,4-oxadiazol-3-yl]phenyl]methyl] pyrazole-3-sulfonamide]
≥ 80%: inhibition at 20 ppm [1] | pest or weed control at 200 ppm [2] | pest or weed control at 200 ppm [3]

COCCS(=O)(=O)N(Cc1ccc(-c2noc(C(F)(F)F)n2)cc1)C(C)C [Compound 1.83, N-isopropyl-2-methoxy-N-[[4-[5-(trifluoromethyl)-1,2,4-oxadiazol-3-yl]phenyl]methyl] ethanesulfonamide]
≥ 80%: inhibition at 20 ppm [1] | pest or weed control at 200 ppm [2] | pest or weed control at 200 ppm [3]

C/C=C/S(=O)(=O)N(Cc1ccc(-c2noc(C(F)(F)F)n2)cc1)C(C)C [Compound 1.84, (E)-N-isopropyl-N-[[4-[5-(trifluoromethyl)-1,2,4-oxadiazol-3-yl]phenyl]methyl] prop-1-ene-1-sulfonamide]
≥ 80%: inhibition at 20 ppm [1] | pest or weed control at 200 ppm [2] | pest or weed control at 200 ppm [3]

COC(=O)CS(=O)(=O)N(Cc1ccc(-c2noc(C(F)(F)F)n2)cc1)C(C)C [Compound 1.85, methyl 2-[isopropyl-[[4-[5-(trifluoromethyl)-1,2,4-oxadiazol-3-yl]phenyl]methyl]sulfamoyl]acetate]
≥ 80%: inhibition at 20 ppm [1] | pest or weed control at 200 ppm [2] | pest or weed control at 200 ppm [3]

CC(C)N(Cc1ccc(-c2noc(C(F)(F)F)n2)cc1)S(C)(=O)=O [Compound 1.86, N-isopropyl-N-[[4-[5-(trifluoromethyl)-1,2,4-oxadiazol-3-yl]phenyl]methyl] methanesulfonamide]
≥ 80%: inhibition at 20 ppm [1] | pest or weed control at 200 ppm [2] | pest or weed control at 200 ppm [3]

CNS(=O)(=O)N(Cc1ccc(-c2noc(C(F)(F)F)n2)cc1)C(C)C [Compound 1.87, 3-[4-[[isopropyl (methylsulfamoyl)amino]methyl]phenyl]-5-(trifluoromethyl)-1,2,4-oxadiazole]
≥ 80%: inhibition at 20 ppm [1] | pest or weed control at 200 ppm [2] | pest or weed control at 200 ppm [3]

CC(C)N(Cc1ccc(-c2noc(C(F)(F)F)n2)cc1)S(=O)(=O)C1CC1 [Compound 1.98, N-isopropyl-N-[[4-[5-(trifluoromethyl)-1,2,4-oxadiazol-3-yl]phenyl]methyl] cyclopropanesulfonamide]
≥ 80%: inhibition at 20 ppm [1] | pest or weed control at 200 ppm [2] | pest or weed control at 200 ppm [3]

CC(C)N(Cc1ccc(-c2noc(C(F)(F)F)n2)cc1)S(=O)(=O)N(C)C [Compound 1.100, N-(dimethylsulfamoyl)-N-[[4-[5-(trifluoromethyl)-1,2,4-oxadiazol-3-yl]phenyl]methyl] propan-2-amine]
≥ 80%: inhibition at 20 ppm [1] | pest or weed control at 200 ppm [2] | pest or weed control at 200 ppm [3]

CCN(Cc1ccc(-c2noc(C(F)(F)F)n2)cc1F)S(=O)(=O)N(C)C [Compound 1.105, N-(dimethylsulfamoyl)-N-[[2-fluoro-4-[5-(trifluoromethyl)-1,2,4-oxadiazol-3-yl]phenyl]methyl] ethanamine]
≥ 80%: inhibition at 20 ppm [1] | pest or weed control at 200 ppm [2] | pest or weed control at 200 ppm [3]

CCN(Cc1ccc(-c2noc(C(F)(F)F)n2)c(F)c1)S(=O)(=O)N(C)C [Compound 1.106, N-(dimethylsulfamoyl)-N-[[3-fluoro-4-[5-(trifluoromethyl)-1,2,4-oxadiazol-3-yl]phenyl]methyl] ethanamine]
≥ 80%: inhibition at 20 ppm [1] | pest or weed control at 200 ppm [2] | pest or weed control at 200 ppm [3]

CCN(Cc1ccc(-c2noc(C(F)(F)F)n2)c(F)c1F)S(=O)(=O)N(C)C [Compound 1.107, N-[[2,3-difluoro-4-[5-(trifluoromethyl)-1,2,4-oxadiazol-3-yl]phenyl]methyl]-N-(dimethylsulfamoyl) ethanamine]
≥ 80%: inhibition at 20 ppm [1] | pest or weed control at 200 ppm [2] | pest or weed control at 200 ppm [3]

CCCS(=O)(=O)NCc1ccc(-c2noc(C(F)(F)F)n2)cc1 [Compound 2.4, N-[[4-[5-(trifluoromethyl)-1,2,4-oxadiazol-3-yl]phenyl]methyl] propane-1-sulfonamide]
≥ 80%: inhibition at 20 ppm [1] | pest or weed control at 200 ppm [2] | pest or weed control at 200 ppm [3]
